Results on 16 compounds are retold here after patent US20090093454A1, “Chemical Compounds” (priority 2005, published 2009).

Structures are written as SMILES. Where a name gives a salt, the structure may show the parent alone.

This test deals with HIV-1 gp160 (HXB2 strain) HEK-293 cells fusing with HOS (hCXCR4/hCCR5/hCD4/pHIV-LTR-luciferase) cells. Put plainly: Cell/cell fusion assay (luciferase). The note with it: Homo sapiens, HEK (tat/rev/gp160 HXB2) + HOS cells, 24 h, read-out: Fusion assay (pIC50) (converted). Format: cell-based. The text has this: The complete coding sequences of HIV-1 tat (GenBank Accession No. X07861) and rev (GenBank Accession No. M34378) were cloned into pcDNA3.1 expression vectors containing G418 and hygromycin resistance genes, respectively. The complete coding sequence of the HIV-1 (HXB2 strain) gp160 envelope gene (nucleotide bases 6225-8795 of GenBank Accession No. K03455) was cloned into plasmid pCRII-TOPO. The three HIV genes were additionally inserted into the baculovirus shuttle vector, pFastBacMam1, under the transcriptional control of the CMV promoter. A construction of the pHIV-I LTR containing mutated NFkB sequences linked to the luciferase reporter gene was prepared by digesting pcDNA3.1, containing the G418 resistance gene, with Nru I and Bam HI to remove the CMV promoter. LTR-luc was then cloned into the Nru I/Bam HI sites of the plasmid vector. Plasmid preparations were performed after the plasmids were amplified in Escherichia coli strain DH5-alpha. The fidelity of the inserted sequences was confirmed by double-strand nucleotide sequencing using an ABI Prism Model 377 automated sequencer.
Recombinant BacMam baculoviruses were constructed from pFastBacMam shuttle plasmids by using the bacterial cell-based Bac-to-Bac system. Viruses were propagated in Sf9 (Spodoptera frugiperda) cells cultured in Hink's TNM-FH Insect media supplemented with 10% (v/v) fetal bovine serum and 0.1% (v/v) pluronic F-68 according to established protocols.
Human osteosarcoma (HOS) cells that naturally express human CXCR4 were transfected with human CCR5, human CD4 and the pHIV-LTR-luciferase plasmid using FuGENE 6 transfection reagent. Single cells were isolated and grown under selection condition in order to generate a stable HOS (hCXCR4/hCCR5/hCD4/pHIV-LTR-luciferase) clonal cell line. The cells were maintained in Dulbeccos modified Eagles media supplemented with 10% fetal calf serum (FCS), G418 (400 ug/ml), puromycin (1 ug/ml), mycophenolic acid (40 ug/ml), xanthine (250 ug/ml) and hypoxanthine (13.5 ug/ml) to maintain a selection pressure for cells expressing the LTR-luciferase, hCCR5 and hCD4, respectively. Human embryonic kidney (HEK-293) cells stably transfected to express the human macrophage scavenging receptor (Class A, type 1; GenBank Accession No. D90187), were maintained in DMEM/F-12 media (1:1) supplemented with 10% FCS and 1.5 ug/ml puromycin. The expression of this receptor by the HEK-293 cells enhances their ability to stick to tissue culture treated plasticware.
HEK-293 cells were harvested using enzyme-free cell dissociation buffer. The cells were resuspended in DMEM/F-12 media supplemented with 10% FCS and 1.5 ug/ml and counted. Tranductions were performed by direct addition of BacMam baculovirus containing insect cell media to cells. The cells were simultaneously transduced with BacMam baculovirus expressing HIV-1 tat, HIV-1 rev and HIV-1 gp160 (from the HXB2 HIV strain). Routinely an MOI of 10 of each virus was added to the media containing the cells. 2 mM butyric acid was also added to the cells at this stage to increase protein expression in transduced cells. The cells were subsequently mixed and seeded into a flask at 30 million cells per T225. The cells were incubated at 37° C., 5% CO2, 95% humidity for 24 h to allow for protein expression.
HEK and HOS cells were harvested in DMEM/F-12 media containing 2% FCS and DMEM media containing 2% FCS, respectively, with no selection agents added. Compounds were plated as 1 ul spots in 100% DMSO on a 96-well CulturPlate plates. HOS cells (50 ul) were added first to the wells, followed immediately by the HEK cells (50 ul). The final concentration of each cell type was 20,000 cells per well. Following these additions, the cells were returned to a tissue culture incubator (37° C.; 5% CO2/95% air) for an additional 24 h.
Following the 24 h incubation, total cellular luciferase activity was measured using the LucLite Plus assay kit (Packard, Meridien, Conn.). […]

`CN1CCN(c2cccc3nc(CN4CCC[C@@H]5CCc6cccnc6[C@@H]54)cn23)CC1` [Example 22, (4aS,10bR)-1-{[5-(4-Methyl-1-piperazinyl)imidazo[1,2-a]pyridin-2-yl]methyl}-1,2,3,4,4a,5,6,10b-octahydro-1,10-phenanthroline]: the IC50 was 158 nM. The figure for `CN(C)CCCn1c(CN2CCC[C@@H]3CCc4cccnc4[C@@H]32)nc2ccccc21` [Example 11A, (3-{2-[(4aS,10bR)-3,4,4a,5,6,10b-Hexahydro-1,10-phenanthrolin-1(2H)-ylmethyl]-1H-benzimidazol-1-yl}propyl)dimethylamine] is 1260 nM. As to `CN1CCN(c2cccc3nc(CN4CCC[C@H]5CCc6cccnc6[C@H]54)cn23)CC1` [Example 27, (4aR,10bS)-1-{[5-(4-Methyl-1-piperazinyl)imidazo[1,2-a]pyridin-2-yl]methyl}-1,2,3,4,4a,5,6,10b-octahydro-1,10-phenanthroline], the IC50 was 1.26 nM. The figure for `CN1CCN(c2cccc3[nH]c(CN4CCC[C@@H]5CCc6cccnc6[C@H]54)nc23)CC1` (racemic) [Example 32, (trans)-1-{[4-(4-Methyl-1-piperazinyl)-1H-benzimidazol-2-yl]methyl}-1,2,3,4,4a,5,6,10b-octahydro-1,10-phenanthroline trifluoroacetate] is 200 nM; for `NCCCn1c(CN2CCC[C@H]3CCc4cccnc4[C@H]32)nc2ccccc21` (racemic) [Example 9, (cis)-3-[2-(3,4,4a,5,6,10b-Hexahydro-1,10-phenanthrolin-1(2H)-ylmethyl)-1H-benzimidazol-1-yl]-1-propanamine] it is 89.1 nM; for `CN(C)CCCn1c(CN2CCC[C@H]3CCc4cccnc4[C@H]32)nc2ccccc21` [Example 11B, (3-{2-[(4aR,10bS)-3,4,4a,5,6,10b-Hexahydro-1,10-phenanthrolin-1(2H)-ylmethyl]-1H-benzimidazol-1-yl}propyl)dimethylamine] it is 25.1 nM. As for `c1cnc2c(c1)CC[C@H]1CCCN(Cc3nc4ccccc4[nH]3)[C@H]21` (racemic) [Example 6, (trans)-1-(1H-Benzimidazol-2-ylmethyl)-1,2,3,4,4a,5,6,10b-octahydro-1,10-phenanthroline], the IC50 was 1120 nM. The figure for `CN1CCCC(Cn2c(CN3CCC[C@H]4CCc5cccnc5[C@H]43)nc3ccccc32)C1` (mixture of isomers) [Example 13, (cis)-1-({1-[(1-Methyl-3-piperidinyl)methyl]-1H-benzimidazol-2-yl}methyl)-1,2,3,4,4a,5,6,10b-octahydro-1,10-phenanthroline] is 31.6 nM; for `CN(C)CCCn1c(CN2CCC[C@H]3CCc4cccnc4[C@@H]32)nc2ccccc21` (stereo in doubt) [Example 10A, (3-{2-[(4aR,10bR)-3,4,4a,5,6,10b-Hexahydro-1,10-phenanthrolin-1(2H)-ylmethyl]-1H-benzimidazol-1-yl}propyl)dimethylamine] it is 417 nM. The same measure for `CN1CCN(c2cccc3nc(CN4CCC[C@H]5CCc6cccnc6[C@H]54)[nH]c23)CC1` (racemic) [Example 33, (cis)-1-{[4-(4-Methyl-1-piperazinyl)-1H-benzimidazol-2-yl]methyl}-1,2,3,4,4a,5,6,10b-octahydro-1,10-phenanthroline]: 0.398 nM. The same measure for `CN(C)CCCn1c(CN2CCC[C@@H]3CCc4cccnc4[C@H]32)nc2ccccc21` (stereo in doubt) [Example 10B, (3-{2-[(4aS,10bS)-3,4,4a,5,6,10b-Hexahydro-1,10-phenanthrolin-1(2H)-ylmethyl]-1H-benzimidazol-1-yl}propyl)dimethylamine]: 200 nM; for `NCCCn1c(CN2CCC[C@@H]3CCc4cccnc4[C@H]32)nc2ccccc21` (racemic) [Example 8, (trans)-3-[2-(3,4,4a,5,6,10b-Hexahydro-1,10-phenanthrolin-1(2H)-ylmethyl)-1H-benzimidazol-1-yl]-1-propanamine]: 490 nM; for `c1cnc2c(c1)CC[C@@H]1CCCN(Cc3nc4ccccc4n3Cc3ccncc3)[C@H]21` (racemic) [Example 12, (cis)-1-{[1-(4-Pyridinylmethyl)-1H-benzimidazol-2-yl]methyl}-1,2,3,4,4a,5,6,10b-octahydro-1,10-phenanthroline]: 7940 nM. Consider `c1cnc2c(c1)CC[C@@H]1CCCN(Cc3nc4ccccc4[nH]3)[C@H]21` (racemic) [Example 7, (cis)-1-(1H-Benzimidazol-2-ylmethyl)-1,2,3,4,4a,5,6,10b-octahydro-1,10-phenanthroline], for which the IC50 was 3160 nM. In the case of `CN1CCN(c2cccc3nc(CN4CCC[C@H]5CCc6cccnc6[C@H]54)cn23)CC1` (racemic) [Example 15B, (cis)-1-{[5-(4-Methyl-1-piperazinyl)imidazo[1,2-a]pyridin-2-yl]methyl}-1,2,3,4,4a,5,6,10b-octahydro-1,10-phenanthroline], the IC50 is 5.5 nM.

In the case of `CN1CCN(c2cccc3nc(CN4CCC[C@@H]5CCc6cccnc6[C@H]54)cn23)CC1` (racemic) [Example 15A, (trans)-1-{[5-(4-Methyl-1-piperazinyl)imidazo[1,2-a]pyridin-2-yl]methyl}-1,2,3,4,4a,5,6,10b-octahydro-1,10-phenanthroline], the IC50 was 77.6 nM.
